Results on three compounds are retold here after ChEMBL document CHEMBL1145710, “Antineoplastic agents. 362. Isolation and X-ray crystal structure of dibromophakellstatin from the Indian ocean sponge Phakellia mauritiana” (1997).

Holding throughout (assay type): functional
The test system of one experiment is OVCAR-3. The experiment can be described thus: Cytotoxicity against human OVCAR-3 cells by SRB assay. The settings on record: read-out: ED50 (the source's name).
In the next experiment the test system is SF-295. The experiment is described as follows: Cytotoxicity against human SF295 cells by SRB assay. The conditions noted are these: read-out: ED50 (the source's name). Background: Sulforhodamine B stains cellular protein and so reports cell mass.
The subject of another experiment is A498. The experiment is described as follows: Cytotoxicity against human A498 cells by SRB assay. The settings on record: read-out: ED50 (the source's name).
The test system of another experiment is NCI-H460. The experiment can be described thus: Cytotoxicity against human H460 cells by SRB assay. The conditions noted are these: read-out: ED50 (the source's name).
The subject of another experiment is KM-20L2. The experiment can be described thus: Cytotoxicity against human KM20L2 cells by SRB assay. The settings on record: read-out: ED50 (the source's name).
The subject of the next experiment is SK-MEL-5. The experiment is described as follows: Cytotoxicity against human SK-MEL-5 cells by SRB assay. The settings on record: read-out: ED50 (the source's name).
For the next experiment, the system named is K562. The experiment can be described thus: Cytotoxicity against human K562 cells by SRB assay.
Another experiment has as its system A549. The experiment is described as follows: Cytotoxicity against human A549 cells by SRB assay.
In a further experiment the test system is HOP-92. The experiment can be described thus: Cytotoxicity against human HOP92 cells by SRB assay.
The next experiment deals with NCI-H226. The experiment is described as follows: Cytotoxicity against human NCI-H226 cells by SRB assay.
Another experiment deals with NCI-H522. The experiment is described as follows: Cytotoxicity against human NCI-H522 cells by SRB assay.
The test system of another experiment is COLO 205. The experiment can be described thus: Cytotoxicity against human COLO205 cells by SRB assay.
Another experiment deals with HCT-116. The experiment can be described thus: Cytotoxicity against human HCT116 cells by SRB assay.
The next experiment concerns HT-29. The experiment can be described thus: Cytotoxicity against human HT-29 cells by SRB assay.
In the next experiment the test system is SF-539. The experiment is described as follows: Cytotoxicity against human SF539 cells by SRB assay.
For a further experiment, the system named is SNB-75. The experiment can be described thus: Cytotoxicity against human SNB75 cells by SRB assay.
The test system of another experiment is U-251. The experiment is described as follows: Cytotoxicity against human U251 cells by SRB assay.
Another experiment relates to OVCAR-5. The experiment is described as follows: Cytotoxicity against human OVCAR5 cells by SRB assay.
Another experiment relates to OVCAR-8. The experiment can be described thus: Cytotoxicity against human OVCAR8 cells by SRB assay.
The test system of another experiment is 786-0. The experiment is described as follows: Cytotoxicity against human 786-0 cells by SRB assay.
For another experiment, the system named is PC-3. The experiment is described as follows: Cytotoxicity against human PC3 cells by SRB assay.
Experiment [1] in a line: Cytotoxicity against human MCF7/ADR cells by SRB assay. The settings on record: NCI/ADR-RES.
In a further experiment the test system is MDA-MB-231. The experiment is described as follows: Cytotoxicity against human MDA-MB-231 cells by SRB assay.
Experiment [2] in a line: Cytotoxicity against human Hs 578T cells by SRB assay.

Converted amounts (≈) assume the structure as drawn.

For the compound `NC1=N/C(=C2/CCNC(=O)c3[nH]ccc32)C(=O)N1` [DEBROMOHYMENIALDISINE], the EC50 was 1.8 µg/mL (≈ 7.34 µM) with OVCAR-3; 38.9 µg/mL (≈ 159 µM) in the experiment with SF-295; 24.7 µg/mL (≈ 101 µM) in the experiment with A498; 42 µg/mL (≈ 171 µM) in the experiment on NCI-H460; 8.5 µg/mL (≈ 34.7 µM) in the experiment on KM-20L2; 5.7 µg/mL (≈ 23.2 µM) in the experiment on SK-MEL-5.
Regarding `NC1=N[C@]23CCCN2C(=O)c2cc(Br)c(Br)n2[C@@H]3N1` [DIBROMOPHAKELLIN], the EC50 in the experiment on OVCAR-3 amounted to 15.7 µg/mL (≈ 40.4 µM); with SF-295 it was 18.8 µg/mL (≈ 48.3 µM); with A498, 17.8 µg/mL (≈ 45.8 µM); with NCI-H460 it was 22 µg/mL (≈ 56.5 µM); in the experiment on KM-20L2 it was 20.1 µg/mL (≈ 51.7 µM); with SK-MEL-5 it was 17 µg/mL (≈ 43.7 µM).
The term GI50 denotes the concentration that inhibits growth by half. High values mean lower sensitivity of the cells, low ones greater sensitivity of the cells. `O=C1N[C@H]2n3c(cc(Br)c3Br)C(=O)N3CCC[C@]23N1` [DIBROMOPHAKELLSTATIN]: the EC50 came to 0.46 µg/mL (≈ 1.18 µM) in the experiment with OVCAR-3; 1.5 µg/mL (≈ 3.85 µM) in the experiment with SF-295; 0.21 µg/mL (≈ 0.538 µM) in the experiment with A498; 0.62 µg/mL (≈ 1.59 µM) with NCI-H460; 0.11 µg/mL (≈ 0.282 µM) with KM-20L2; 0.11 µg/mL (≈ 0.282 µM) in the experiment with SK-MEL-5. For the same compound, the GI50 with K562 was 692 nM; with A549, 676 nM; with HOP-92, 490 nM; in the experiment with NCI-H226, 871 nM; with NCI-H522 it was 240 nM; with COLO 205, 794 nM. Moreover, the GI50 in the experiment with HCT-116 was 575 nM; with HT-29 it was 631 nM; in the experiment with SF-539, 617 nM; with SNB-75, 776 nM; in the experiment with U-251, 589 nM; in the experiment with OVCAR-5 it was 676 nM. The concentration for 50% growth inhibition (GI50) with OVCAR-8 is 120 nM; in the experiment with 786-0, 603 nM; with PC-3 it was 708 nM; in experiment [1], 525 nM; in the experiment on MDA-MB-231, 724 nM; in [2], 871 nM.
